Test results taken from patent US12378224B2 (Dong-A Socio Holdings Co., Ltd., priority 2016, dated 2025).
pIC50: −log10 of the molar value.

The compounds below were run against human c-MER catalytic domain (Homo sapiens (Human), UniProt Q12866) (assay: TR-FRET Kinase Activity Biochemical Assay (LanthaScreen)). Details: 10 uM ATP, 1 hour, kinase not given.
Description: For the SAR (structure-activity relationship) and compound screening, LanthaScreen™ TR-FRET (Time-Resolved fluorescence energy transfer) assay was employed using the phospho-tyrosine specific Terbium (Tb)-labelded antibody with a fluorescein labeled poly-GT (glutamate-tyrosine) as a substrate. Upon excitation at 340 nm by UV, the energy from Tb donor of the antibody is transferred to the fluorescein of the phosphorylated poly GT substrate, and fluorescein emits light at 520 nm. The ratio between the intensity of […] was used to quantify the level of kinase activity. The recombinant proteins of human c-MER and AXL catalytic domains, Fluorescein-labeled poly-GT substrate, Tb-labeled anti-phosphorylated tyrosine antibodies, the kinase assay buffer, and 0.5M EDTA solution were purchased (Life technologies, USA). The TR-FRET assays were carried out in the white low volume 384-well plate (Corning, USA). […] 10 mM EDTA was added to terminate the enzyme reaction, and the level of phosphorylation of poly-GT substrate was determined following 30 min incubation with 2 nM Tb-labeled antibody. The fluorescence intensity was measured with Envision™ plate reader (PerkinElmer, USA).

human c-MER catalytic domain, sequence (Q12866 587-858): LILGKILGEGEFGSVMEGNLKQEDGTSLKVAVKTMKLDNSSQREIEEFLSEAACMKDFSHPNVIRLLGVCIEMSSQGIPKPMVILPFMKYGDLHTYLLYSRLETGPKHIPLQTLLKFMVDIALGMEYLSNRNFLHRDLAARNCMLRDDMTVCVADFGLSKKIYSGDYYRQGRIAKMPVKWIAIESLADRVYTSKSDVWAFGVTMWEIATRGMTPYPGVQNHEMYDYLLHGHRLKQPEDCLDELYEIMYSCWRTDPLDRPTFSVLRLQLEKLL

Structure (SMILES)	pIC50
CCc1ccccc1NC(=O)N1CC[C@@H](NC(=O)c2cc(-c3cnn(C)c3)cnc2N)C1 [Example 20, (R)-2-amino-N-(1-((2-ethylphenyl)carbamoyl)pyrrolidin-3-yl)-5-(1-methyl-1H-pyrazol-4-yl)nicotinamide]	< 6.00
Cn1cc(-c2cnc(N)c(C(=O)N[C@@H]3CCN(C(=O)Oc4ccccc4N)C3)c2)cn1 [Example 70, 2-aminophenyl (R)-3-(2-amino-5-(1-methyl-1H-pyrazol-4-yl)nicotinamido)pyrrolidine-1-carboxylate]	< 6.00
CC1CC(C)CC(OC(=O)N2CC[C@@H](NC(=O)c3cc(-c4cnn(C)c4)cnc3N)C2)C1 (stereo partly drawn) [Example 79, 3,5-dimethylcyclohexyl (3R)-3-(2-amino-5-(1-methyl-1H-pyrazol-4-yl)nicotinamido)pyrrolidine-1-carboxylate]	< 6.00
CN1CCN(Cc2ccc(-c3cnc(N)c(C(=O)N[C@@H]4CCN(C(=O)Oc5cccc(-c6ccccc6)c5)C4)c3)cc2)CC1 [Example 82, [1,1′-biphenyl]-3-yl (R)-3-(2-amino-5-(4-((4-methylpiperazin-1-yl)methyl)phenyl)nicotinamido)pyrrolidine-1-carboxylate]	7.00 to 8.00
C[C@H]1CCCC[C@H]1OC(=O)N1CC[C@@H](NC(=O)c2cc(-c3cnn(C)c3)cnc2N)C1 [Example 108, (1R,2S)-2-methylcyclohexyl (R)-3-(2-amino-5-(1-methyl-1H-pyrazol-4-yl)nicotinamido)pyrrolidine-1-carboxylate]	< 6.00
CN1CCN(Cc2ccc(Oc3ccc(OC(=O)N4CC[C@@H](NC(=O)c5cc(-c6cnn(C)c6)cnc5N)C4)cc3)cc2)CC1 [Example 113, 4-(4-((4-methylpiperazin-1-yl)methyl)phenoxy)phenyl (R)-3-(2-amino-5-(1-methyl-1H-pyrazol-4-yl)nicotinamido)pyrrolidine-1-carboxylate]	6.00 to 7.00
CN1CCN(Cc2ccc(-c3cnc(N)c(C(=O)N[C@@H]4CCN(C(=O)Oc5ccccc5)C4)c3)cc2)CC1 [Example 118, phenyl (R)-3-(2-amino-5-(4-((4-methylpiperazin-1-yl)methyl)phenyl)nicotinamido)pyrrolidine-1-carboxylate]	6.00 to 7.00
Cn1cc(-c2cnc(N)c(C(=O)N[C@@H]3CCN(C(=O)O[C@H]4CCC[C@@H]4OCc4ccccc4)C3)c2)cn1 [Example 120, (1S,2S)-2-(benzyloxy)cyclopentyl (R)-3-(2-amino-5-(1-methyl-1H-pyrazol-4-yl)nicotinamido)pyrrolidine-1-carboxylate]	< 6.00
Cn1cc(-c2cnc(N)c(C(=O)N[C@@H]3CCN(C(=O)OC4CCCN(c5ccc(C=O)cc5)C4)C3)c2)cn1 (stereo partly drawn) [Example 123, 1-(4-formylphenyl)piperidin-3-yl (3R)-3-(2-amino-5-(1-methyl-1H-pyrazol-4-yl)nicotinamido)pyrrolidine-1-carboxylate]	< 6.00
Cn1cc(-c2cnc(N)c(C(=O)N[C@@H]3CCN(C(=O)OC4CCN(c5ccccc5)C4)C3)c2)cn1 (stereo partly drawn) [Example 126, 1-phenylpyrrolidin-3-yl (3R)-3-(2-amino-5-(1-methyl-1H-pyrazol-4-yl)nicotinamido)pyrrolidine-1-carboxylate]	< 6.00
Cn1cc(-c2cnc(N)c(C(=O)N[C@@H]3CCN(C(=O)O[C@@H]4CCN(c5ccccc5)C4)C3)c2)cn1 [Example 127, (R)-1-phenylpyrrolidin-3-yl (R)-3-(2-amino-5-(1-methyl-1H-pyrazol-4-yl)nicotinamido)pyrrolidine-1-carboxylate]	< 6.00
Cc1ccc(N2CC[C@@H](NC(=O)c3cc(-c4cnn(C)c4)cnc3N)C2)cc1 [Example 134, (R)-2-amino-5-(1-methyl-1H-pyrazol-4-yl)-N-(1-(p-tolyl)pyrrolidin-3-yl)nicotinamide]	< 6.00
Cn1cc(-c2cnc(N)c(C(=O)N[C@@H]3CCN(c4ncc([N+](=O)[O-])s4)C3)c2)cn1 [Example 138, (R)-2-amino-5-(1-methyl-1H-pyrazol-4-yl)-N-(1-(5-nitrothiazol-2-yl)pyrrolidin-3-yl)nicotinamide]	< 6.00
Cn1cc(-c2cnc(N)c(C(=O)N[C@@H]3CCN(CC(=O)c4ccccc4)C3)c2)cn1 [Example 215, (R)-2-amino-5-(1-methyl-1H-pyrazol-4-yl)-N-(1-(2-oxo-2-phenylethyl)pyrrolidin-3-yl)nicotinamide]	< 6.00
Cn1cc(-c2cnc(N)c(C(=O)N[C@@H]3CCN(Cc4cccc(Oc5ccccc5)c4)C3)c2)cn1 [Example 221, (R)-2-amino-5-(1-methyl-1H-pyrazol-4-yl)-N-(1-(3-phenoxybenzyl)pyrrolidin-3-yl)nicotinamide]	< 6.00

More lines, now with the values ahead:

pIC50	Structure (SMILES)
6.00 to 7.00	Cn1cc(-c2cnc(N)c(C(=O)N[C@@H]3CCN(C(=O)Nc4cccc(Br)c4)C3)c2)cn1 [Example 24, (R)-2-amino-N-(1-((3-bromophenyl)carbamoyl)pyrrolidin-3-yl)-5-(1-methyl-1H-pyrazol-4-yl)nicotinamide]
6.00 to 7.00	COc1cc(NC(=O)N2CC[C@@H](NC(=O)c3cc(-c4cnn(C)c4)cnc3N)C2)cc(OC)c1OC [Example 35, (R)-2-amino-5-(1-methyl-1H-pyrazol-4-yl)-N-(1-((3,4,5-trimethoxyphenyl)carbamoyl)pyrrolidin-3-yl)nicotinamide]
7.00 to 8.00	CN1CCN(Cc2ccc(-c3cnc(N)c(C(=O)N[C@@H]4CCN(C(=O)Nc5cccc(-c6ccccc6)c5)C4)c3)cc2)CC1 [Example 37, (R)—N-(1-([1,1′-biphenyl]-3-ylcarbamoyl)pyrrolidin-3-yl)-2-amino-5-(4-((4-methylpiperazin-1-yl)methyl)phenyl)nicotinamide]
7.00 to 8.00	Nc1ncc(-c2ccc(CN3CCC(O)CC3)cc2)cc1C(=O)N[C@@H]1CCN(C(=O)Nc2cccc(-c3ccccc3)c2)C1 [Example 39, (R)—N-(1-([1,1′-biphenyl]-3-ylcarbamoyl)pyrrolidin-3-yl)-2-amino-5-(4-((4-hydroxypiperidin-1-yl)methyl)phenyl)nicotinamide]
6.00 to 7.00	Cn1cc(-c2cnc(N)c(C(=O)N[C@@H]3CCN(C(=S)Nc4ccc(N5CCOCC5)cc4)C3)c2)cn1 [Example 49, (R)-2-amino-5-(1-methyl-1H-pyrazol-4-yl)-N-(1-((4-morpholinophenyl)carbamothioyl)pyrrolidin-3-yl)nicotinamide]
6.00 to 7.00	Cn1cc(-c2cnc(N)c(C(=O)N[C@@H]3CCN(C(=O)Oc4ccc5ccc(O)cc5c4)C3)c2)cn1 [Example 95, 7-hydroxynaphthalen-2-yl (R)-3-(2-amino-5-(1-methyl-1H-pyrazol-4-yl)nicotinamido)pyrrolidine-1-carboxylate]
7.00 to 8.00	Cn1cc(-c2cnc(N)c(C(=O)N[C@@H]3CCN(C(=O)Oc4cccc(-c5ccccc5)c4)C3)c2)cn1 [Example 117, [1,1′-biphenyl]-3-yl (R)-3-(2-amino-5-(1-methyl-1H-pyrazol-4-yl)nicotinamido)pyrrolidine-1-carboxylate]
6.00 to 7.00	Cn1cc(-c2cnc(N)c(C(=O)N[C@@H]3CCN(C(=O)OC4CCC(c5ccccc5)C4)C3)c2)cn1 (stereo partly drawn) [Example 121, 3-phenylcyclopentyl (3R)-3-(2-amino-5-(1-methyl-1H-pyrazol-4-yl)nicotinamido)pyrrolidine-1-carboxylate]
6.00 to 7.00	Cn1cc(-c2cnc(N)c(C(=O)N[C@@H]3CCN(C(=O)O[C@H]4CCN(c5ccccc5)C4)C3)c2)cn1 [Example 128, (S)-1-phenylpyrrolidin-3-yl (R)-3-(2-amino-5-(1-methyl-1H-pyrazol-4-yl)nicotinamido)pyrrolidine-1-carboxylate]
7.00 to 8.00	CC(c1ccccc1Cl)N1CC[C@@H](NC(=O)c2cc(-c3cnn(C4CCNCC4)c3)cnc2N)C1 (stereo partly drawn) [Example 148, 2-amino-N-((3R)-1-(1-(2-chlorophenyl)ethyl)pyrrolidin-3-yl)-5-(1-(piperidin-4-yl)-1H-pyrazol-4-yl)nicotinamide]
6.00 to 7.00	CC(c1cccc(Cl)c1)N1CC[C@@H](NC(=O)c2cc(-c3cnn(C4CCNCC4)c3)cnc2N)C1 (stereo partly drawn) [Example 149, 2-amino-N-((3R)-1-(1-(3-chlorophenyl)ethyl)pyrrolidin-3-yl)-5-(1-(piperidin-4-yl)-1H-pyrazol-4-yl)nicotinamide]
6.00 to 7.00	COc1ccccc1CN1CC[C@@H](NC(=O)c2cc(-c3cnn(C4CCNCC4)c3)cnc2N)C1 [Example 167, (R)-2-amino-N-(1-(2-methoxybenzyl)pyrrolidin-3-yl)-5-(1-(piperidin-4-yl)-1H-pyrazol-4-yl)nicotinamide]
6.00 to 7.00	COc1cccc(CN2CC[C@@H](NC(=O)c3cc(-c4cnn(C)c4)cnc3N)C2)c1OC [Example 217, (R)-2-amino-N-(1-(2,3-dimethoxybenzyl)pyrrolidin-3-yl)-5-(1-methyl-1H-pyrazol-4-yl)nicotinamide]
6.00 to 7.00	Cn1cc(-c2cnc(N)c(C(=O)N[C@@H]3CCN(Cc4cccc(OCc5ccccc5)c4)C3)c2)cn1 [Example 222, (R)-2-amino-N-(1-(3-(benzyloxy)benzyl)pyrrolidin-3-yl)-5-(1-methyl-1H-pyrazol-4-yl)nicotinamide]
6.00 to 7.00	Cn1cc(-c2cnc(N)c(C(=O)N[C@@H]3CCN(Cc4cc(Cl)cc(Cl)c4O)C3)c2)cn1 [Example 223, (R)-2-amino-N-(1-(3,5-dichloro-2-hydroxybenzyl)pyrrolidin-3-yl)-5-(1-methyl-1H-pyrazol-4-yl)nicotinamide]
6.00 to 7.00	Cn1cc(-c2cnc(N)c(C(=O)N[C@@H]3CCN(CCc4cccc(Br)c4)C3)c2)cn1 [Example 234, (R)-2-amino-N-(1-(3-bromophenethyl)pyrrolidin-3-yl)-5-(1-methyl-1H-pyrazol-4-yl)nicotinamide]
